Source: paper PMC9894685, “Abscisic acid agonists suitable for optimizing plant water use” (Frontiers in Plant Science, 2023)

Legend:
RCAR8/PYL5-ABI2 = test system: T1, RCAR8/PYL5-ABI2; test: Yeast ABA signal pathway LUC reporter, RCAR8-ABI2; assay type: cell-based, Arabidopsis thaliana
T1 construct: expressed in transfected cells; host or cells: yeast (LUC reporter strain)
Method: (§1) The yeast cultivation and the life luciferase assay were performed as described ([Ruschhaupt et al., 2019]). Briefly, the reporter yeast expressing an ABA-dependent luciferase gene (LUC) was transformed with different combinations of ABA signaling components as indicated. Golden gate cloning ([Binder et al., 2014]) was used to construct pYEAST_LII_5‐6_CEN_URA vector with TDH3 promoter and TDH1 terminator (tTDH1), pYEAST_LII_1‐2_CEN_LEU vector with GK1 promoter and tTDH1, and pYEAST_LII_3‐4_CEN_TRP with the GAL1 promoter (pGAL1) and tTDH1 to express RCARs, PP2Cs, and OST1 (SnRK2.6), respectively ([Ruschhaupt et al., 2019]). The expression of ABF2 in yeast relies on a modified pGREG503 vector, in which pGAL1 ([Jansen et al., 2005]) was replaced by the ADH1 promoter.
(§2) Colonies of freshly transformed cells were inoculated in 0.5 mL supplemented synthetic dextrose (SD) medium and incubated at 30°C in a gyratory shaker (Thermoshake-THO500, Gerhardt, Königswinter, Germany) at 200 rpm for 16-18 h. After overnight growth, the cells were harvested and washed in SD medium followed by inoculation in SD medium containing 2% galactose for induction of SnRK2 kinases under the control of the GAL1 promoter and supplementation with ligands at indicated concentrations, to an OD600 of 0.2 in flat-bottom 96-well plates (CytoOne, Starlab, Hamburg, Germany). Yeast cultures were incubated at 30°C and 200 rpm for 16-18 h before determination of LUC activity and cell density. Light emission of yeasts was detected in a HIDEX plate luminometer (HIDEX, Turku, Finland) after injection of 100 µL freshly prepared luciferin substrate (1 mM D-luciferin, Promega) provided in 100 mM citric acid, pH 3 ([Leskinen et al., 2003]) for 5 s and was corrected for background. The LUC activity was normalized to the cell density (OD600) measured in 96-well flat plates (Sarstedt, Nümbrecht, Germany). LUC activity is given as the ratio of light emission to OD600 in counts per second.

Arabidopsis plants = test: Progressive drought experiment: growth, water consumption, WUE; assay type: in vivo, Arabidopsis thaliana
Method: The progressive drought experiment was performed as described ([Yang et al., 2016]). Briefly, 18-day-old Arabidopsis plantlets grown under well-watered and short-day conditions (8 h light with 150 µmol m^-2 s^-1 PAR, 22°C, 50% relative humidity, and 16 h dark with 17°C, 60% relative humidity) were transferred to 0.2 L pots loaded with water-saturated soil (33.4 ± 0.4 g dry soil with 148 ± 2 g water). At the onset of the progressive drought (day 0), water was withheld, and a sealed soil surface prevented evaporation. A slowly increasing water deficit was achieved by transpirational water loss from plants. The progressive drought experiment lasted for eight weeks until mock-treated plants had consumed all the plant-usable water. […] For measuring growth and water consumption, leaf rosettes were regularly photographed, and the pots were weighed. The projected leaf area of Arabidopsis rosettes was analyzed by using Photoshop Elements software (Adobe, San Jose, USA). The consumed water was calculated as the difference in pot weight between day 0 and the designated days. The retained water was expressed as the difference between the pot weight at the end of the drought (day 57) and the weight of the loaded dry soil. Above-ground material was harvested at day 57, and the biomass was determined after drying the material for three days at 60°C to achieve constant weight. WUE was calculated as the ratio of above-ground dry biomass to consumed water. The data for the mock- and ABA-treated plants in the progressive drought experiment were already published ([Yang et al., 2019]).

RCAR8-ABI2 = test: In vitro phosphatase assay, ABI2 with RCAR8; assay type: biochemical, Arabidopsis thaliana; conditions: 100 nM ABI2, 200 nM RCAR8
Method: (§3) Expression, purification, and analysis of RCAR and PP2C proteins were performed essentially as described ([Ruschhaupt et al., 2019]). Briefly, the ABA receptors RCAR1, RACR8, and RCAR11 were expressed with an aminoterminal histidine tag using the pSEVA431_LII_6xHIS::RCAR1/RCAR8/RCAR11. ABA coreceptors were expressed as histidine-tagged fusions with the maltose-binding protein using the pSEVA431_LII_6xHIS::MBP::ABI2/HAB1. All constructs were transformed and expressed in Escherichia coli strain BL21 and purified to homogeneity according to supplier’s instruction (GE Healthcare, Chicago, USA). The receptor assay was performed with 100 nM PP2C and a two-fold molar excess of RCAR. Values are means ± SD of three replicates. […] The maximum inhibition was set to 100% in the figures. The phosphatase activity was measured using 4-methylumbelliferyl-phosphate as a substrate ([Meinhard and Grill, 2001]). The increase in fluorescence was recorded over 25 min with excitation and emission wavelengths at 360 and 460 nm, respectively, using a Synergy 2 plate reader (Bio-Tec, Winooski, USA).

RCAR11-ABI2 = test: Yeast ABA signal pathway LUC reporter, RCAR11-ABI2; assay type: cell-based, Arabidopsis thaliana
Method: as §1, §2

RCAR1-HAB1 = biological target: T2, RCAR1-HAB1; test: In vitro phosphatase assay, HAB1 with RCAR1; assay type: biochemical, Arabidopsis thaliana; conditions: 100 nM HAB1, 200 nM RCAR1
T2 construct: 6xHis (N); made in house; host or cells: Escherichia coli BL21
Method: as §3

In the case of `CCC(=C/C(=O)O)/C=C/C(O)(C(C)C)C1(C#N)CC1` (centres unmarked) [CCP2], the “Reporter induction relative to ABA” value (RCAR8/PYL5-ABI2; 1 µM exogenous ligand) is reported as “no significant reporter regulation”, the “Higher level required for induction value comparable to 1 µM ABA” value (RCAR8/PYL5-ABI2; yeast, RCAR8-ABI2) is reported as greater than 30 x and the WUE increase (Arabidopsis plants; 30 µM solute concentration) is reported as roughly 50%. The “Growth of leaf rosettes compared to mock” value (Arabidopsis plants; 30 µM, three administrations) was “growth reduction”, the “Plant-usable soil water transpired” value (Arabidopsis plants; end of drought experiment) was roughly 70% and the “WUE improvement compared to controls” value (Arabidopsis plants; end of drought experiment) was “up to 50%”. For the same molecule, the “Restriction of water consumption” value (Arabidopsis plants; single administration, for two weeks) was “approximately 30%”, the “IC50 relative to ABA (fold higher)” value (RCAR8-ABI2) was roughly 30 fold and the “ABA-agonistic activity in yeast LUC reporter” value (RCAR11-ABI2; 30 µM, not esterase-treated) was “revealed an ABA-agonistic activity”. The “Activation of the ABA response compared to ABA” value (RCAR11-ABI2; dose-dependent, 0.1-30 µM) was “comparable activity to ABA” and the “IC50 with HAB1 compared to the ABI2 results” value (RCAR1-HAB1) was “lower IC50 value”.
